Assay [1] concerns SB.mhdgc-1. Nature of the assay: viability at highest tested concentration (MAXR) relative to DMSO; higher = less cytotoxic. The settings on record: SB.mhdgc-1 (hereditary c.1380delA CDH1 gastric cancer). In short, it runs like this:
(§1)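 Each entry is viability relative to DMSO, given either at the highest concentration tested or as a trapezoidal area under the curve. Gastric cancer cells from hereditary or sporadic patients (500 cells in 5 μL medium per 1536 well) received compound in DMSO at 11 threefold-diluted concentrations, 23 nL by pintool. Luminescence from CellTiter-Glo was read after 48 h.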

For assay [2], the system named is SB.msgc-1. Described as above. As to conditions: SB.msgc-1 (sporadic gastric cancer). In short, it runs like this:
as §1

Assay [3] has as its system SB.mhdgc-1. Nature of the assay: area under the dose-response curve of % viability (trapezoidal, 11 doses) (% viability x log10 concentration); higher = less cytotoxic. The settings on record: SB.mhdgc-1 (hereditary c.1380delA CDH1 gastric cancer). In short, it runs like this: as §1
The test system of assay [4] is SB.msgc-1. Described as above. As to conditions: SB.msgc-1 (sporadic gastric cancer). In short, it runs like this: as §1

The results in this text go back to the supplement of paper PMC5412046.

The structures appear in SMILES notation. Where a name gives a salt, the structure may show the parent alone.

The term viability denotes a read-out of living cells in per cent, often relative to untreated cells. Consider `CCOC(=O)c1ccc(OC(=O)CCCCCNC(=N)N)cc1` [Gabexate mesilate] (top concentration 46.0829 µM), for which the results for the viability in the assay with SB.mhdgc-1 [1] and in the assay on SB.msgc-1 [2] were 116% and 120%, respectively. In addition, the “area under the dose-response curve” value in the assay with SB.mhdgc-1 [3] was found to be 485; in the assay on SB.msgc-1 [4], 547.

Turning to `Cn1cc(/C=C2\C(=O)Nc3cccnc32)c2ccccc21` (top concentration 46.0829 µM), the viability in the assay with SB.mhdgc-1 [1] stood at 88.4%; with SB.msgc-1 [2] it was 79%. Besides, the “area under the dose-response curve” value with SB.mhdgc-1 [3] was found to be 521; with SB.msgc-1 [4] it was 517.

Regarding `O=c1[nH]c2ccccc2n1C1CCN(Cc2ccc(-c3nc4cc5nc[nH]c5cc4nc3-c3ccccc3)cc2)CC1` [AKT inhibitor VIII] (top concentration 46.0829 µM), the viability was found to be 44.3% in the assay on SB.mhdgc-1 [1] and 38.8% in the assay with SB.msgc-1 [2]. Moreover, the “area under the dose-response curve” value came out at 419 in the assay on SB.mhdgc-1 [3] and 482 in the assay on SB.msgc-1 [4].

Regarding `COC1=C(N2CCNC(C)C2)C(=CC3=C1N(\C=C(C(O)=O)/C3=O)C4CC4)F` (stereo unspecified) [Gatifloxacin] (top concentration 46.0829 µM), the viability with SB.mhdgc-1 [1] was found to be 90.4%; in the assay on SB.msgc-1 [2], 90.3%. Also, the “area under the dose-response curve” value in the assay on SB.mhdgc-1 [3] came out at 534; in the assay with SB.msgc-1 [4], 517.

As to `CC[C@H](NC(C)C)[C@H](O)c1ccc(O)c2[nH]c(=O)ccc12` [Procaterol hydrochloride] (top concentration 46.0829 µM), the viability was 104% in the assay with SB.mhdgc-1 [1] and 99.5% in the assay with SB.msgc-1 [2]. Further, the “area under the dose-response curve” value with SB.mhdgc-1 [3] came to 517; in the assay with SB.msgc-1 [4], 530.

For `Oc1ccc([C@@H]2Oc3ccc(O)cc3[C@@H]3CCC[C@@H]32)cc1` [Erteberel] (top concentration 46.0829 µM), the figures for the viability with SB.mhdgc-1 [1] and in the assay on SB.msgc-1 [2] were 16.6% and 12.8%, respectively. Moreover, the “area under the dose-response curve” value in the assay with SB.mhdgc-1 [3] amounted to 492; in the assay on SB.msgc-1 [4], 278.

As to `O=[S+]([O-])(O)c1ccc2cc(/N=N/c3cc([S+](=O)([O-])O)c4cccnc4c3O)ccc2c1` (top concentration 46.0829 µM), the viability was 35.2% in the assay on SB.mhdgc-1 [1] and 36.3% with SB.msgc-1 [2]. The “area under the dose-response curve” value in the assay with SB.mhdgc-1 [3] is 509; in the assay on SB.msgc-1 [4], 513.

Turning to `Oc1cc(O)cc(/C=C/c2ccc(O)c(O)c2)c1` [Piceatannol] (top concentration 46.0829 µM), the viability in the assay with SB.mhdgc-1 [1] worked out at 77.9%; with SB.msgc-1 [2] it was 72.8%. Also, the results for the “area under the dose-response curve” value in the assay with SB.mhdgc-1 [3] and in the assay with SB.msgc-1 [4] were 545 and 494, respectively.

Take `Cc1cccc(-c2[nH]c(C(C)(C)C)nc2-c2ccc3nccnc3c2)n1` (top concentration 46.0829 µM): the viability with SB.mhdgc-1 [1] is 23.1%; in the assay with SB.msgc-1 [2], 62%. The “area under the dose-response curve” value in the assay on SB.mhdgc-1 [3] turned out to be 530; in the assay on SB.msgc-1 [4] it was 486.

On to `O=S(=O)([O-])CCS.[Na+]` [Mesna] (top concentration 46.0829 µM), for which the viability with SB.mhdgc-1 [1] is 98.3%; with SB.msgc-1 [2] it was 106%. In addition, the “area under the dose-response curve” value in the assay on SB.mhdgc-1 [3] turned out to be 502; with SB.msgc-1 [4], 420.

With `O=C(Nc1cccnc1)N1CCC(Cc2cccc(Oc3ccc(C(F)(F)F)cn3)c2)CC1` [PF-3845] (top concentration 46.0829 µM), the viability came to 43% with SB.mhdgc-1 [1] and 44.9% in the assay with SB.msgc-1 [2]. Further, the “area under the dose-response curve” value was found to be 470 in the assay with SB.mhdgc-1 [3] and 534 with SB.msgc-1 [4].

Turning to `COc1cc2c(cc1OC)CC(=O)N(CCCN(C)C[C@H]1Cc3cc(OC)c(OC)cc31)CC2.Cl` [Ivabradine hydrochloride] (top concentration 46.0829 µM), the figures for the viability in the assay on SB.mhdgc-1 [1] and in the assay on SB.msgc-1 [2] were 60.9% and 70.4%, respectively. In addition, the “area under the dose-response curve” value in the assay on SB.mhdgc-1 [3] was 503; in the assay on SB.msgc-1 [4], 559.

`C=C(C)[C@H]1Cc2c(ccc3c2O[C@@H]2COc4cc(OC)c(OC)cc4[C@@H]2C3=O)O1` [Rotenone] (top concentration 46.0829 µM): the viability in the assay with SB.mhdgc-1 [1] is 35.7%; in the assay with SB.msgc-1 [2] it was 38.9%. The results for the “area under the dose-response curve” value in the assay with SB.mhdgc-1 [3] and with SB.msgc-1 [4] were 441 and 417, respectively.

For `Cc1cc(Nc2ncc3c(n2)N(C)C(=O)N(c2cc(NC(=O)c4cccc(C(F)(F)F)c4)ccc2C)C3)n(C)n1` [Pluripotin] (top concentration 46.0829 µM), the viability turned out to be 40.4% in the assay with SB.mhdgc-1 [1] and 45.8% with SB.msgc-1 [2]. Besides, the “area under the dose-response curve” value with SB.mhdgc-1 [3] turned out to be 429; with SB.msgc-1 [4], 438.

In the case of `CC/C(=C(/CC)c1ccc(O)cc1)c1ccc(O)cc1` [Diethylstilbestrol] (top concentration 46.0829 µM), the viability in the assay with SB.mhdgc-1 [1] turned out to be 10.1%; with SB.msgc-1 [2], 39%. The “area under the dose-response curve” value with SB.mhdgc-1 [3] came to 404; in the assay on SB.msgc-1 [4], 448.

In the case of `Cc1n[nH]c2ccc(-c3cncc(OC[C@@H](N)Cc4c[nH]c5ccccc45)c3)cc12` (top concentration 46.0829 µM), the viability in the assay on SB.mhdgc-1 [1] is 8.18%; with SB.msgc-1 [2], 29%. Further, the “area under the dose-response curve” value is 399 in the assay with SB.mhdgc-1 [3] and 392 in the assay on SB.msgc-1 [4].

As for `C[C@]12CCC3c4ccc(O)cc4CCC3C1CCC2=O` (stereo partly specified) [Estrone] (top concentration 46.0829 µM), the viability in the assay on SB.mhdgc-1 [1] worked out at 87.7%; in the assay with SB.msgc-1 [2], 103%. Besides, the “area under the dose-response curve” value in the assay with SB.mhdgc-1 [3] is 449; in the assay with SB.msgc-1 [4], 522.

Consider `Cc1cccc(/C=N/Nc2cc(N3CCOCC3)nc(OCCc3ccccn3)n2)c1` [Apilimod] (top concentration 46.0829 µM), for which the viability with SB.mhdgc-1 [1] stood at 6.66%; in the assay with SB.msgc-1 [2] it was 18.9%. Also, the results for the “area under the dose-response curve” value in the assay on SB.mhdgc-1 [3] and in the assay with SB.msgc-1 [4] were 423 and 447, respectively.

In the case of `O=C1N(c2ccccc2)c2ccccc2C1(Cc1ccncc1)Cc1ccncc1` [Linopirdine] (top concentration 46.0829 µM), the viability in the assay on SB.mhdgc-1 [1] came out at 5.06%; with SB.msgc-1 [2], 57.2%. Also, the “area under the dose-response curve” value came out at 369 in the assay with SB.mhdgc-1 [3] and 540 in the assay with SB.msgc-1 [4].

In the case of `O=C(Nc1cccc(Br)c1)c1cccc([S+](=O)([O-])N2CCCCCC2)c1` [Ak-7] (top concentration 46.0829 µM), the viability worked out at 53.6% with SB.mhdgc-1 [1] and 38.5% in the assay on SB.msgc-1 [2]. Besides, the “area under the dose-response curve” value in the assay on SB.mhdgc-1 [3] was determined as 503; with SB.msgc-1 [4], 463.

Regarding `CCNC(=O)Nc1ccc(-c2nc3c(c(N4CCOC[C@@H]4C)n2)CCN(C2COC2)C3)cc1` [GDC-0349] (top concentration 46.0829 µM), the viability in the assay on SB.mhdgc-1 [1] amounted to 13.4%; with SB.msgc-1 [2] it was 59.2%. The “area under the dose-response curve” value in the assay on SB.mhdgc-1 [3] amounted to 405; in the assay on SB.msgc-1 [4], 474.

For the compound `Cn1cc(-c2ccc3ncc(Cc4ccc5ncccc5c4)n3n2)cn1` [NVP-BVU-972] (top concentration 46.0829 µM), the viability worked out at 49.7% in the assay on SB.mhdgc-1 [1] and 98.9% in the assay with SB.msgc-1 [2]. In addition, the “area under the dose-response curve” value was 374 in the assay with SB.mhdgc-1 [3] and 506 with SB.msgc-1 [4].

Take `CCCCCN(C)CCC(O)(P(=O)([O-])O)P(=O)(O)O` [Ibandronate sodium hydrate] (top concentration 46.0829 µM): the viability amounted to 107% in the assay with SB.mhdgc-1 [1] and 108% with SB.msgc-1 [2]. In addition, the “area under the dose-response curve” value in the assay on SB.mhdgc-1 [3] worked out at 468; in the assay with SB.msgc-1 [4], 547.

`CCOc1cc(/C=C2/C(=O)N(c3ccccc3)N=C2C)cc(Cl)c1OCC(=O)OC` (top concentration 46.0829 µM): the viability with SB.mhdgc-1 [1] worked out at 42.6%; in the assay on SB.msgc-1 [2], 78.5%. Also, the results for the “area under the dose-response curve” value in the assay on SB.mhdgc-1 [3] and with SB.msgc-1 [4] were 378 and 492, respectively.
